Structures are written as SMILES. “Also recorded” adds a separate entry of the source.

Data set [1] concerns mBMDCs. Description: EV release from mBMDCs (differential ultracentrifugation, MRPS). The conditions noted are these: 10 μM, 46-48 h, vs Veh.
In a further data set the test system is THP-1 cells. The experiment in a line: Intracellular Ca2+ influx screening (Fura-2) in THP-1 cells. The data set is classed as cell-based, human. The conditions noted are these: hit candidate compounds 10 μM, 25 minutes, vs vehicle control (DMSO). As for the experimental part:
FIGS. 1A-1D. Intracellular Ca^2+ influx screening of 84 HTS hit candidate compounds. (A) THP-1 cells were loaded with the ratiometric Ca^2+ indicator, Fura-2, and treated with lonomycin (ION, 1 μM), Thapsigargin (1 μM), or 84 hit candidate compounds (10 μM) for 25 minutes. Data are presented as the area under the curve (AUG) of OD340/380 ratios corresponding to the intracellular Ca^2+ kinetics. The baseline-subtracted AUG was calculated using GraphPad Prism (GraphPad Software, San Diego, CA). (B) Ca^2+ mobilization by compound #634. mBMDCs were loaded with the ratiometric Ca^2+ indicator, Fura-8, and treated with ION (1 μM), or #634 (2 and 10 μM) for 25 minutes. The dashed line indicates the timing of compounds added. The data shown are representative of three independent experiments showing similar results. (C) Ca^2+ add-back assay. Fura-8-loaded mBMDC were treated with ION (1 μM), or compound #634 (2 μM, 10 μM) for 15 minutes in the absence of extracellular Ca^2+, and then Ca^2+ (final 1.8 mM) was added at 15 minutes. Data shown are representative of three independent experiments showing similar results. (D) C57BL/6 mice (n=5/group) were intramuscularly immunized with ovalbumin (OVA, 20 μg/mouse) adjuvanted with compound #634 (200 nmol/mouse), or Veh (10% DMSO) on days 0 and 21 and bled on day 28. OVA-specific IgGI and IgG2c levels in sera were determined by ELISA. **p<0.01, ***p<0.001, ns (not significant) by KruskalWallis tests with Dunn's post hoc test vs. Veh.
FIGS. 18A-18C. Compound 634 induces intracellular Ca^2+ levels in mBMDCs. […] The time-response pattern of intracellular Ca^2+ levels was recorded for 25 minutes. AUC of OD340/380 ratios corresponds to the intracellular Ca^2+ kinetics, and the baseline-subtracted AUC was calculated by GraphPad Prism. […]
FIGS. 24A-24B. […] The time-response pattern of intracellular Ca^2+ levels was recorded with a plate reader for 25 minutes. (A) The AUC of OD340/380 ratios corresponds to the intracellular Ca^2+ kinetics and the baseline-subtracted AUC was calculated by GraphPad Prism (FIG. 36). […]

Data set [2] relates to mBMDCs. The experiment in a line: Cell viability / cytotoxicity in mBMDCs (MTT). The data set is classed as cell-based, mouse. The conditions noted are these: mBMDCs, Example 2 clustered hits. As for the experimental part: FIGS. 30A-30B. […] After 48 hours incubation, cell viability was determined by MTT assay.
mBMDCs (10^5 cells/200 μL/well) were treated with 10 and 5 μM of a test compound in 96-well plates overnight. After 18 hours of drug treatment, MTT (0.5 mg/ml) was added to each well. The cells were lysed after 6-8 hours incubation, and absorbance values at 570 and 650 nm were measured. PrestoBlue reagent (#A13261, Thermo Fisher Scientific) was used for cell viability assay in CD63 HTS as described earlier.
Cell viability assay. mBMDCs (2×10^6 cells/200 μL/well in RPMI1640 supplemented with dialyzed 10% FBS, or 1.5×10^6 cells/200 μL/well in RPMI1640 supplemented with 10% exosome depleted FBS) were treated with 10 μM of each test compound in 96-well plates. After 46-48 hours of compound treatment, MTT (0.5 mg/mL) was added to each well. The cells were lysed after overnight incubation, and absorbance values at 570 and 650 nm were measured.

Another data set relates to NF-κB. The experiment in a line: NF-κB-bla THP-1 HTS. Format: cell-based, human. The conditions noted are these: 10 μM, 5 hours. On the procedure:
The robotic HTS using the three reporter cells were performed using 384-well plates by the SelectScreen™ service, Thermo Fisher Scientific (Madison, WI) (Pu et al., 2012; Chan et al., 2017b; Shukla et al., 2018). For HTS using NF-κB-bla and ISRE-bla THP-1 cells, LPS (100 ng/ml) and human IFN-α (50 nM) were used as the positive controls, respectively, while 0.5% DMSO was used as vehicle (Veh). The cells were incubated with compounds (10 μM) for 5 hours, and LiveBLAzer™ FRET BIG substrate (CCF4-AM) mixture was added. Fluorescence was measured at an excitation wavelength of 405 nm, and emission wavelengths of 465 and 535 nm. The background values were subtracted from the raw values (cell-free wells at the same fluorescence wavelength). Emission ratios were calculated by dividing background-subtracted values from em1ss1on wavelength of 465 nm by those from emission wavelength of 535 nm. The response ratio (RR) was calculated as follows (emission ratio of a test well)/(average emission ratio of wells with Veh). Further, for comparison of activity, “% activation” for each compound was computed within the plate as 100×(compound RR−average Veh RR)/(average LPS RR−average Veh RR).

`COC(=O)c1sc(-c2cccs2)cc1NS(=O)(=O)c1ccsc1C(=O)OC` [#504]: the “number of EV particles released in the culture supernatant” value in the data set on mBMDCs [1] is listed as “low”. Besides, in the data set on THP-1 cells, the “intracellular Ca^2+ increase (Fura-2 assay)” value is “higher intracellular Ca^2+ increase than vehicle control; also recorded: potent in calcium Fura-2 assay”. Besides, the “MTT assay values (cell viability)” value in the data set on mBMDCs [2] is “higher MTT values”. In addition, the “NF-κB activity (primary HTS)” value in the data set with NF-κB is given as “much lower NF-κB inducing activity”.

For the origin of these results see patent publication US20250281465A1, “MOLECULES THAT ENHANCE EXTRACELLULAR VESICLE RELEASE” (priority 2022, published 2025).
